# System: EGFR inhibitor resistant NSCLC cell line NCI-H1975
# Test: in vivo antitumor activity against s.c. NCI-H1975 tumors in athymic mice
# Procedure: Female Harlan athymic mice (n=6), bearing s.c NCI-H1975 tumors are treated p.o. with the PI3K inhibitor Compound A at 50 mg/kg every day for the duration of the treatment. * p<0.05 (Dunnet's vs controls).
# Non small cell lung carcinoma cell lines with EGFR mutant forms, but refractory to EGFR inhibition therapy, are valuable models to test the sensitivity of PI3K inhibitors like the compounds of formula I in such genetic background. The NCI-H1975 cell line is such a model as is highly tumorigenic in vivo. Moreover, it contains HER1 bearing the T790M gatekeeper mutation that renders the kinase resistant to catalytic inhibition by compounds such as gefitinib. The in vivo antitumor activity of PI3K inhibitors like the compounds of formula I is tested against this EGFR driven and EGFR tyrosine kinase inhibitor resistant tumor model (FIG. 1).
smiles,measurement,setting,value
"Nc1cc(C(F)(F)F)c(-c2cc(N3CCOCC3)nc(N3CCOCC3)n2)cn1 [Compound A, 5-(2,6-di-morpholin-4-yl-pyrimidin-4-yl)-4-trifluoromethyl-pyridin-2-ylamine]",antitumor activity (tumor growth),"female Harlan athymic mice, s.c. NCI-H1975 tumors (HER1 T790M), 50 mg/kg p.o. every day, p<0.05 Dunnet's vs controls (FIG. 1)",in vivo tumor growth inhibition
same,"mean body weight, control vs treatment group","mice bearing s.c. NCI-H1975 tumors, 50 mg/kg p.o. every day (FIG. 2)",no statistically significant difference in body weight
same,tolerability,"mouse, in vivo, 50 mg/kg",well tolerated

# From US20140161722A1, “USE OF PYRIMIDINE DERIVATIVES FOR THE TREATMENT OF EGFR DEPENDENT DISEASES OR DISEASES THAT HAVE ACQUIRED RESISTANCE TO AGENTS THAT TARGET EGFR FAMILY MEMBERS” (priority 2008, published 2014)
